We go through 17 compounds from patent US20030216569A1, “Method of making HIV protease inhibitors” (priority 1993, published 2003).

Read-outs that look alike come from different tables or passages of the source. Marks after values point to notes of the source that are not given here.

The target of the assay is HIV-1 protease (Human immunodeficiency virus type 1 group M subtype B, UniProt P04585). Kind of assay: Fluorescence HIV-1 Protease Inhibitor Assay (Pandex). It is filed as biochemical. On the set-up: made in house; host or cells: E. coli K12 L507/pHP10D (NRRL B-18560). The method, then: A. Preparation of Protease and Gag Fractions
Lyophils of E. coli K12 L507/pHP10D were obtained from the Northern Regional Research Laboratory, Peoria, Ill. 61604, under the accession number NRRL B-18560 (deposited Nov. 14, 1989). The lyophils were decanted into tubes containing 10 ml LB medium (10 g Bacto-tryptone, 5 g Bacto-yeast extract, and 10 g aqueous sodium chloride per liter; the pH was adjusted to 7.5 and incubated at 32° C. overnight).
A small portion of the overnight culture was placed on LB-agar (LB medium with 15 g/L Bacto-agar) plates containing 12.5 micrograms/ml tetracycline in a manner so as to obtain a single colony isolate of E. coli K12 L507/pHP10D. The single colony obtained was inoculated into 10 ml of LB medium containing 12.5 micrograms/ml tetracycline and incubated overnight at 32° C. with vigorous shaking. The 10 ml overnight culture was inoculated into LB medium containing 12.5 micrograms/ml tetracycline and incubated at 32° C. with vigorous shaking until the culture reached mid-log phase. […]
3. Preparation of Protease Fraction
A culture of E. coli K12 L507/pHP10D was grown to mid-log phase at 32° C. in LB media containing 12.5 micrograms/ml tetracycline. The cultivation temperature was quickly elevated to 40° C. to induce gene expression, and the cells were allowed to grow for 2.5 hours at this temperature before the culture was quickly chilled on ice. The cells were centrifuged and the cell pellet was resuspended in 20 ml of 50 mmol MES buffer (pH 6.0) containing 1 mmol EDTA, 1 mmol DTT, 1 mmol PMSF and 10% glycerol (“Buffer A”). Cells were lysed by sonication using a Fischer Model 300 Dismembrator and a microtip probe. Following centrifugation at 27,000×g, the supernatant was diluted to a total volume of 60 ml with Buffer A and loaded onto a 2.0×19 cm QAE-Sepharose column (1 ml/min, 4° C.), that had been equilibrated in Buffer A. The column was washed isocratically for 180 min and then eluted with a gradient eluent of […] aqueous sodium chloride in Buffer A over 120 min. Enzymatic activity was measured by HPLC using the synthetic peptide Ser-Gln-Asn-Tyr-Pro-Ile-Val as described in Margolin et al., Biochem. Biophys. Res. Commun., 167, 554-560 (1990); the production of the p1 peptide (Ser-Gln-Asn-Tyr) was measured.
The active fractions were combined, adjusted to […] 1.2M in ammonium sulfate, and applied to a 2.0×18 cm hexyl agarose column that had been equilibrated in Buffer A containing 1.2M ammonium sulfate. The sample was loaded at a flow rate of 1 ml/min at 4° C., washed with the equilibration buffer for 240 min (1 ml/min) and then eluted using a reverse linear gradient of 1.2-0M ammonium sulfate in Buffer A for 120 min at the same flow rate. The column was then washed isocratically in Buffer A for 120 min.
The active fractions were combined, concentrated to 10 ml using an Amicon stirred cell with a YM-10 membrane and then applied to a MonoS cation exchange column (1.0×10 cm) that had been equilibrated in Buffer A. The sample was loaded at a flow rate of 1 ml/min at 25° C. After washing isocratically for 30 min, the protease was eluted using a linear gradient of 0-0.45M aqueous sodium chloride in Buffer A over 40 min. The column was washed isocratically in Buffer A containing 0.45M aqueous sodium chloride for 30 minutes.
The active fractions were combined and concentrated to 200 microliters using an Amicon stirred cell and a YM-10 membrane and then the protease was applied to a Superose 6 size exclusion column equilibrated in Buffer A containing 0.1M aqueous sodium chloride.

Setting [1] is: normalized to positive control (=1.0), * = a calculated average, read-out: Fluorescence Assay IC50 in ng/mL (converted).
Where [2] appears, read: value as run, 35B value of the same run in footnote or parentheses, read-out: Pandex IC50 ng/ml (converted).
[3] abbreviates: normalized to positive control (=1.0), * = a calculated average.

For the compound `CC(C)(C)NC(=O)C1CC2CCCCC2CN1CC(O)C(Cc1ccccc1)NC(=O)c1cc(O)cc(O)c1Cl` (stereo not drawn) [Example 8, [3S-(3R*,4aR*,8aR*,2′S*,3′R*)]-2-[2′-Hydroxy-3′-phenylmethyl-4′-aza-5′-oxo-5′-(2″-chloro-3″,5″-dihydroxyphenyl)pentyl] decahydroisoquinoline-3-N-t-butylcarboxamide], the IC50 was 28.7 nM under setting [1] and 10.1 nM under setting [2]. As to `Cc1ccc(N)cc1C(=O)N[C@H](CSc1ccc2ccccc2c1)[C@H](O)Cc1ccccc1C(=O)NC(C)(C)C` (relative stereo) [Example 47, [2′R-(2′R*,3′S*)]-N-t-Butyl-2-[2′-hydroxy-3′-naphth-2-ylthiomethyl-4′-aza-5′-oxo-5′-(2″-methyl-5″-aminophenyl)pentyl] benzamide], the “Fluorescence Assay IC50” value under setting [3] was 0.091 µg/mL. Turning to `CC(=O)Oc1cccc(C(=O)N[C@@H](Cc2ccccc2)[C@H](O)CN2C[C@H]3CCCC[C@H]3C[C@H]2C(=O)NC(C)(C)C)c1C` (relative stereo) [Example 82, [3S-(3R*, 4aR*, 8aR*, 2′S*, 3′R*)]-2-[2′-Hydroxy-3′-phenylmethyl-4′-aza-5′-oxo-5′-(2″-methyl-3″-(acetyl)hydroxyphenyl)pentyl]decahydroisoquinoline-3-N-t-butyl carboxamide], the IC50 under setting [2] is 325 nM. In the case of `Cc1c(O)cccc1C(=O)N[C@@H](Cc1ccccc1)[C@H](O)CN1CCCC[C@H]1C(=O)NC(C)(C)C` (relative stereo) [Example 6, [2S-(2R*,2′S*,3′R*)]-1-[2′-Hydroxy-3′-phenylmethyl-4′-aza-5′-oxo-5′-(2″methyl-3″-hydroxyphenyl)pentyl]piperidine-2-N-t-butylcarboxamide], the “Fluorescence Assay IC50 in ng/mL” value under setting [3] is on record as 513* ng/mL. In the case of “[2′R-(2′R*,3′S*)]-N-t-Butyl-2-[2′-hydroxy-3′-naphth-2-ylthiomethyl-4′-aza-5′-oxo-5′-(1″-N(methyl)indol-4″-yl)pentyl] benzamide [Example 69]”, for the setting “concentration of the inhibitor not increased above 15 μg/mL”, the “Fluorescence Assay IC35” value is on record as “IC35(15000)** ng/mL”. Regarding `Cc1ccc(CO)cc1C(=O)N[C@@H](Cc1ccccc1)[C@H](O)Cc1ccccc1C(=O)NC(C)(C)C` (relative stereo) [Example 41, [2′R-(2′R*,3′S*)]-N-t-Butyl-2-[2′-hydroxy-3′-phenylmethyl-4′-aza-5′-oxo-5′-(2″methyl-5″-hydroxymethylphenyl)pentyl] benzamide], the “Fluorescence Assay IC50” value under setting [3] was 0.006 µg/mL.

As for `Cc1ccsc1C(=O)N[C@@H](CSc1ccccc1)[C@H](O)CN1C[C@H]2CCCC[C@H]2C[C@H]1C(=O)NC(C)(C)C` (relative stereo) [Example 90, [3S-(3R*, 4aR*, 8aR*, 2′S*, 3′S*)]-2-[2′-Hydroxy-3′-phenylthiomethyl-4′-aza-5′-oxo-5′-(3″-methyl-thieno-2″-yl)pentyl]-decahydroisoquinoline-3-N-t-butyl carboxamide], under setting [2], the IC50 was 48.4 nM.

Consider `CC(C)(C)NC(=O)c1ccccc1C[C@@H](O)[C@H](CSc1ccc2ccccc2c1)NC(=O)c1cccc2c1CCNC2` (relative stereo) [Example 58, [2′R-(2′R*,3′S*)]-N-t-Butyl-2-[2′-hydroxy-3′-naphth-2-ylthiomethyl-4′-aza-5′-oxo-5′-(1″,2″,3″,4″-tetrahydroisoquinolin-5″-yl)pentyl] benzamide], for which, under setting [1], the IC50 is 309 nM. Same read-out and setting: as for `CC(C)(C)NC(=O)c1ccccc1C[C@@H](O)[C@H](CSc1ccc2ccccc2c1)NC(=O)c1cccc2c1CCCN2` (relative stereo) [Example 64, [2′R-(2′R*,3′S*)]-N-t-Butyl-2-[2′-hydroxy-3′-naphth-2-ylthiomethyl-4′-aza-5′-oxo-5′-(1″,2″,3″,4″-tetrahydroquinolin-5″-yl)pentyl] benzamide], the figure is 194 nM. Turning to `Cc1c(O)cccc1C(=O)N[C@@H](Cc1ccccc1)[C@H](O)CN1CCC[C@H]1C(=O)NC(C)(C)C` (relative stereo) [Example 4, [2S-(2R*,2′S*,3′R*)]-1-[2′-Hydroxy-3′-phenylmethyl-4′-aza-5′-oxo-5′-(2″-methyl-3″-hydroxyphenyl)pentyl] pyrrolidine-2-N-t-butylcarboxamide], the “Fluorescence Assay IC50 in ng/mL” value under setting [3] is 1425* ng/mL. Turning to `Cc1ccccc1C(=O)N[C@H](CSc1ccc2ccccc2c1)[C@H](O)Cc1ccccc1C(=O)NC(C)(C)C` (relative stereo) [Example 52, [2′R-(2′R*,3′S*)]-N-t-Butyl-2-[2′-hydroxy-3′-naphth-2-ylthiomethyl-4′-aza-5′-oxo-5′-(2″-methylphenyl)pentyl] benzamide], the “Fluorescence Assay IC50” value under setting [3] was 0.281 µg/mL. Turning to “[3S-(3R*,4aR*,8aR*,2′S*,3′S*)]-2-[2′-Hydroxy-3′-phenylthiomethyl-4′-aza-5′-oxo-5′-[6″-methyl-(1″,2″,3″,4″-tetrahydroquinolin-5″-yl)]pentyl] decahydroisoquinoline-3-N-t-butylcarboxamide [Example 38]”, under setting [3], the “Fluorescence Assay IC50” value is 0.0152 µg/mL. Further, under “value as run, 35B value of the same run in footnote or parentheses”, the “Pandex IC50 ng/ml” value is given as 35^e ng/ml. Turning to `Cc1c(N)cc(N)cc1C(=O)N[C@H](CSc1ccc2ccccc2c1)[C@H](O)Cc1ccccc1C(=O)NC(C)(C)C` (relative stereo) [Example 53, [2′R-(2′R*,3′S*)]-N-t-Butyl-2-[2′-hydroxy-3′-naphth-2-ylthiomethyl-4′-aza-5′-oxo-5′-(2″-methyl-3″,5″-diaminophenyl)pentyl] benzamide], the “Fluorescence Assay IC50” value under setting [3] is 0.055 µg/mL.

With `Cc1c(N)cc(N)cc1C(=O)NC(Cc1ccccc1)C(O)CN1CC2CCCCC2CC1C(=O)NC(C)(C)C` (stereo not drawn) [Example 9, [3S-(3R*,4aR*,8aR*,2′S*,3′R*)]-2-[2′-Hydroxy-3′-phenylmethyl-4′-aza-5′-oxo-5′-(2″-methyl-3″,5″-diaminophenyl)pentyl] decahydroisoquinoline-3N-t-butylcarboxamide], the IC50 was 30.9 nM under setting [1] and 95.9 nM under setting [2]. For the compound `CC(C)(C)NC(=O)C1CC2CCCCC2CN1CC(O)C(Cc1ccccc1)NC(=O)c1cccc2c1CCCN2` (stereo not drawn) [Example 37, [3S-(3R*,4aR*,8aR*,2′S*,3′S*)]-2-[2′-Hydroxy-3′-phenylmethyl-4′-aza-5′-oxo-5′-[(1″,2″,3″,4″-tetrahydroquinolin-5″-yl)]pentyl] decahydroisoquinoline-3-N-y-butylcarboxamide], the IC50 under setting [1] was 49 nM and the IC50 under setting [2] is 58.8 nM. On to `Cc1c(O)cccc1C(=O)N[C@H](CSc1ccc2ccccc2c1)[C@H](O)Cc1ccc2ccccc2c1C(=O)NC(C)(C)C` (relative stereo) [Example 48, [2′R-(2′R*,3′S*)]-N-t-Butyl-2-[2′-hydroxy-3′-naphth-2-ylthiomethyl-4′-aza-5′-oxo-5′-(2″-methyl-3″-hydroxyohenyl)pentyl]-1-naphthylamide], for which the “Fluorescence Assay IC50” value under setting [3] was 0.177 µg/mL. As for `CC(C)(C)NC(=O)c1ccccc1C[C@@H](O)[C@H](CSc1ccc2ccccc2c1)NC(=O)c1cccc2cnccc12` (relative stereo) [Example 57, [2′R-(2′R*,3′S*)]-N-t-Butyl-2-[2′-hydroxy-3′-naphth-2-ylthiomethyl-4′-aza-5′-oxo-5′-(isoquinolin-5″-yl)pentyl] benzamide], the IC50 under setting [1] was 1380 nM.
